Test in all cases: Test A preemergence
Holding throughout (assay type): in vivo

Assay [1] concerns barnyardgrass (Echinochloa crus-galli). As to conditions: Echinochloa crus-galli, pre-emergence, 240 h, 0 to 100 scale (0 no effect, 100 complete control), read-out: Plant response rating, Barnyardgrass; for pest or weed control at 500 g/ha: 500 g ai/ha, preemergence; for pest or weed control at 125 g/ha: Preemergence, 125 g ai/ha. In short, it runs like this:
(§1)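 Visual injury, scored on a 0–100 scale relative to untreated controls, was recorded about 10 d after application. Treatments were a preemergence soil spray over planted seeds or a postemergence spray on plants at the one- to two-leaf stage, 2 to 10 cm tall, all in loam soil–sand blend in the greenhouse.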

In assay [2] the test system is ryegrass, Italian (Italian ryegrass, Lolium multiflorum). As to conditions: Lolium multiflorum, pre-emergence, 240 h, 0 to 100 scale (0 no effect, 100 complete control), read-out: Plant response rating, Ryegrass, Italian; for pest or weed control at 500 g/ha: 500 g ai/ha, preemergence; for pest or weed control at 125 g/ha: Preemergence, 125 g ai/ha. Summed up: as §1

Assay [3] relates to pigweed (Amaranthus retroflexus). The conditions noted are these: Amaranthus retroflexus, pre-emergence, 240 h, 0 to 100 scale (0 no effect, 100 complete control), read-out: Plant response rating, Pigweed; for pest or weed control at 500 g/ha: 500 g ai/ha, preemergence; for pest or weed control at 125 g/ha: Preemergence, 125 g ai/ha.
Assay [4] has as its system ragweed (common ragweed, Ambrosia elatior). As to conditions: Ambrosia artemisiifolia, pre-emergence, 240 h, 0 to 100 scale (0 no effect, 100 complete control), read-out: Plant response rating, Ragweed; for pest or weed control at 500 g/ha: 500 g ai/ha, preemergence; for pest or weed control at 125 g/ha: Preemergence, 125 g ai/ha. In short, it runs like this: as §1
A further assay has as its system Kochia (Kochia scoparia). The conditions noted are these: Bassia scoparia, pre-emergence, 240 h, 0 to 100 scale (0 no effect, 100 complete control), read-out: Plant response rating, Kochia; for pest or weed control at 500 g/ha: 500 g ai/ha, preemergence; for pest or weed control at 125 g/ha: Preemergence, 125 g ai/ha. Summed up: as §1
The test system of assay [5] is giant foxtail (Setaria faberii). The conditions noted are these: Setaria faberi, pre-emergence, 240 h, 0 to 100 scale (0 no effect, 100 complete control), read-out: Plant response rating, Foxtail, Giant; for pest or weed control at 500 g/ha: 500 g ai/ha, preemergence; for pest or weed control at 125 g/ha: Preemergence, 125 g ai/ha. Summed up: as §1

Take `CN1C[C@H](c2ccc(C(F)(F)F)cc2)[C@@H](C(=O)Nc2cccc(F)c2C#N)C1=O` [Compound 1380]: the pest or weed control at 500 g/ha is 100% in assay [1]; 50% in assay [2]; 90% in assay [3]; 80% in assay [4]; 90% with Kochia (Kochia scoparia); 100% in assay [5]. For the same compound, the pest or weed control at 125 g/ha in assay [1] turned out to be 90%; in assay [2], 50%; in assay [3] it was 80%; in assay [4], 70%; in the assay with Kochia (Kochia scoparia), 80%; in assay [5], 100%.
With `CN1C[C@H](c2ccc(C(F)F)cc2)[C@@H](C(=O)Nc2cccc(F)c2F)C1=O` [Compound 1383], the pest or weed control at 500 g/ha in assay [1] worked out at 100%; in assay [2], 70%; in assay [3], 80%; in assay [4], 80%; in the assay on Kochia (Kochia scoparia) it was 90%; in assay [5] it was 100%. Besides, the pest or weed control at 125 g/ha in assay [1] stood at 100%; in assay [2], 70%; in assay [3] it was 80%; in assay [4] it was 80%; in the assay with Kochia (Kochia scoparia), 90%; in assay [5], 100%.
For the compound `CSc1ccccc1NC(=O)[C@H]1C(=O)N(C)C[C@@H]1c1ccc(C(F)(F)F)cc1` [Compound 1391], the pest or weed control at 500 g/ha in assay [1] stood at 100%; in assay [2], 70%; in assay [3], 90%; in assay [4] it was 90%; in the assay with Kochia (Kochia scoparia), 90%; in assay [5], 100%. Also, the pest or weed control at 125 g/ha in assay [1] is 90%; in assay [2] it was 30%; in assay [3], 90%; in assay [4], 90%; in the assay with Kochia (Kochia scoparia) it was 90%; in assay [5], 100%.
